Here are results for two molecules from patent US11471502B2, “Neuroprotective peptide” (UNIVERSITY COLLEGE CARDIFF C[…], priority 2017, dated 2022).

For assay [1], the system named is ERK signalling in the striatum. Put plainly: Single in vivo injection, IHC/immunofluorescence of nuclear and cytoplasmic ERK markers in striatum. Also on record: species or system mouse. The following applies: 1 h. On the procedure: (§1) a) RB5 peptide selectively promoted activation of ERK2. Acute striatal slices either pre-treated with Scramble (SCR) or RB5 peptide (50 μM) and then stimulated 10 minutes with glutamate (GLU) (100 μM) or vehicle were analysed in Western blot (left panel) and probed with anti phospho ERK antibodies (p44^ERK1 and p42^ERK2) and anti ERK1/2 antibody. GAPDH was used as loading control. […] No changes were detected in the total ERK1 and ERK2 levels. GAPDH was used as loading control. […] Mice injected with a single dose of CPP-SCR or CPP-RB5 peptides (20 mg/kg, i.p.) were rapidly perfused 1 h later and brains were dissected and further analysed for IHC and immunofluorescence. Representative photomicrographs of pERK1/2, pMSK, pAch3, pELK1 and c-Fos expression in the striatum. […] Two-way ANOVA Bonferroni post hoc comparison: one black star, p<0.05, two black stars, p<0.01, one white star, p<0.001. p) Dose response curve of RB5 peptide for ERK activation. 200 μm thick striatal slices were freshly prepared from 2-month old mice and transferred into a perfusion chamber for 1 h at 32° C. Slices were pre-treated with different doses of RB5 or scrambled control. After 1 h, slices for each dose was fixed in PFA 4% for 15 min. 18 μm cryo-sections were processed for immunohistochemistry with anti-phospho p44/p42 MAP kinase. Neuronal quantification was performed with ImageJ software by counting the number of phospho-ERK positive cells in each slice. The level of activation is expressed on the Y-axis as arbitrary units (AU). Doses are reported in a logarithmic scale (Log 10) on the X-axis. The EC50 was calculated using GraphPad Prism software.
At the indicated times after drug treatments, animals were anaesthetised and transcardially perfused with ice-cold buffered 4% PFA. Brains were extracted, post-fixed overnight and transferred to 30% buffered sucrose for 24 h. Coronal sections were cut to a 35 μm thickness on a freezing microtome and stored in a cryoprotective solution at −20° C. until processing for immunohistochemistry or immunofluorescence.
1 h after CPP-RB5/CPP-SCR (20 mg/kg, i.p.) mice were anaesthetized and perfused via intracardiac infusion of ice-cold 4% PFA. Brains were rapidly extracted, post-fixed overnight and transferred to 25% buffered sucrose for 24 h. Coronal sections were cut at 30 μm thickness on a freezing microtome and stored in a cryoprotective solution at −20° C. until they were processed for immunohistochemistry. Free-floating sections were incubated with primary antibodies against anti-phospho-p44/42 MAP kinase (Thr202/Tyr204), anti-phospho-Elk-1 (Ser383), anti-phospho-Kv4.2 (Thr607)-R, anti-phospho-MSK-1, anti-phospho-MEK-1, c-Fos and Tyrosine Hydroxylase overnight at 4° C. Sections were then incubated with biotinylated goat anti-rabbit IgG (1:200, Vector Labs) for 2 h. Detection of the bound antibodies was carried out using a standard peroxidase-based method (ABC-kit, Vectastain, Vector Labs), followed by a DAB and H2O2 solution. Quantification of positive neurons were counted from striatum in 2-3 sections per mouse, bilaterally. Sample areas were visualized under a 20× objective in a Leica DM IRB microscope by a blind investigator to condition and counts per region were averaged across the sections using the ImageJ software.

Another assay has as its system Tg2576 mice. Put plainly: Contextual Fear Conditioning in Tg2576 mice. Format: in vivo, mouse. The following applies: 20 mg/kg i.p. before CFC training, retention 24 h later. On the procedure: 7 months old Tg2576 mice and WT mice were treated with either CPP-SCR or CPP-RB5 (20 mg/kg, i.p.) before Contextual Fear Conditioning (CFC) training and tested for memory retention 24 h later. Contextual Fear (CF) memory impairment in Tg2576 mice is fully rescued by RB5 treatment. Values are reported as % of time spent freezing. Data are expressed as Mean±SEM. *p<0.05**p<0.01.
Mice protocol: after 120 sec of exploration, mice received 5 foot shocks (0.7 mA, 2-s duration, separated by 60-s intervals) delivered through the grid floor. Context Fear Memory was assessed 24 h later by returning mice for 5 min to the conditioning chamber and not delivering a foot shock.
For all protocols, freezing behavior served as a measure of conditioned fear to the context during the conditioning and retrieval tests of the behavioural procedures. This was video-recorded and quantified by an observer blind to the experimental group. One unit of freezing was defined as a continuous absence of movement other than that required for respiration in 1 s sampled every 10 s.

The subject of the next assay is ERK1/2. Briefly: Ex vivo acute striatal slices, glutamate stimulation, Western blot for phospho ERK. Format: cell-based, mouse. The following applies: 50 μM peptide; for ERK2 activation (phosphorylation of ERK2) / pERK1 (phospho-ERK1) level: glutamate 100 μM 10 min, vs scramble. On the procedure:
as §1
Adult mice were anesthetized and decapitated. The brains were rapidly removed from the skull and put on a cool glass plate filled with ice-cold sucrose-based dissecting solution (87 mM NaCl, 2.5 mM KCl, 7 mM MgCl2, 1 mM NaH2PO4, 75 mM sucrose, 25 mM NaHCO3, 10 mM D-glucose, 0.5 mM CaCl2), 2 mM kynurenic acid) and oxygenated with 95% O2 and 5% CO2 and subsequently mounted on the vibratome stage (Vibratome, VT1000S-Leica Microsystems). 200 μm-thick slices were cut and transferred into the brain slice chamber (Brain slice chamber-BSC1—Scientific System design Inc., Mississauga, ON, Canada) and allowed to recover for 1 h at 32° C., with a constant perfusion of carboxygenated artificial cerebrospinal fluid (ACSF) in the presence of the Scramble or RB5 peptide (50 μM). Brain slice stimulation was performed with 100 μM glutamate in the chamber for 10 min. After rapid fixation in 4% PFA for 15 min at room temperature, slices were rinsed and the cryoprotected overnight at 4° C. in sucrose solution. On the following day slices were further cut in thinner slices of 18 μm using cryostat (Leica CM1850) and collected onto SuperFrost Plus slides (Thermo Scientific).
Mice were sacrificed by decapitation and brain slices were freshly prepared according to the above ex-vivo system protocol and incubated in a perfusing chamber with the peptides. After stimulation with glutamate or saline, slices were then homogenised and used for protein determination using a DC Protein Assay kit (Bio-rad). Equal amounts of protein (5 or 10 μg, depending on the target protein) for each sample were loaded onto 12% polyacrylamide gels. Proteins were separated onto SDS/PAGE and transferred to nitrocellulose membranes. After incubation for 1 hr in blocking solution (TBS1λ, 0.1% Tween), membranes were incubated overnight with anti ERK2 (K-23):sc-153 (1:1000 Santa Cruz Biotechnology, Dallas, Tex.), phospho-p42-44 Map Kinase (Thr202/[…]) (1:1000 Cell Signalling Technology, Danvers, Mass.) and anti-GAPDH (FL-335): sc-25778 (1:1000 Santa Cruz Biotechnology, Dallas, Tex.). The immunoblots were analysed with ImageJ software to measure the optical density of the bands. The levels of each protein were normalized on the GAPDH loading control.

Take `CSCC[C@H](NC(=O)[C@H](CCC(=O)O)NC(=O)[C@@H](NC(=O)[C@H](CCC(=O)O)NC(=O)CNC(=O)[C@@H]1CCCN1C(=O)[C@@H](NC(=O)CNC(=O)[C@@H]1CCCN1C(=O)CNC(=O)[C@@H](NC(=O)CNC(=O)[C@H](CCC(=O)O)NC(=O)[C@@H](NC(=O)[C@H](CCCNC(=N)N)NC(=O)[C@H](CCCNC(=N)N)NC(=O)[C@@H]1CCCN1C(=O)[C@H](CCC(=O)O)NC(=O)CNC(=O)CNC(=O)CNC(=O)CNC(=O)CNC(=O)[C@H](CCC(N)=O)NC(=O)[C@@H]1CCCN1C(=O)[C@@H]1CCCN1C(=O)[C@H](CCCNC(=N)N)NC(=O)[C@H](CCCNC(=N)N)NC(=O)[C@H](CCCNC(=N)N)NC(=O)[C@H](CCC(N)=O)NC(=O)[C@H](CCCNC(=N)N)NC(=O)[C@H](CCCNC(=N)N)NC(=O)[C@H](CCCCN)NC(=O)[C@H](CCCCN)NC(=O)[C@H](CCCNC(=N)N)NC(=O)CNC(C)=O)[C@@H](C)O)C(C)C)C(C)C)C(C)C)C(=O)N[C@H](C(=O)N[C@@H](CCCCN)C(=O)NCC(=O)N[C@@H](CCC(N)=O)C(=O)N1CCC[C@H]1C(=O)N[C@@H](Cc1ccccc1)C(=O)N[C@@H](CC(=O)O)C(=O)N[C@@H](C(=O)O)C(C)C)C(C)C` [RB5]: in assay [1] (20 mg/kg i.p.), the “nuclear ERK-dependent signalling and gene transcription (pMSK, pAcH3, pELK, c-Fos)” value is reported as “selective activation”; the “phosphorylation of the cytoplasmic markers (pMEK-1, pVGK+, pS6)” value is given as “did not influence”; the “striatal ERK phosphorylation (pERK1/2)” value is on record as “enhanced”. Besides, the “Contextual Fear (CF) memory impairment (% of time spent freezing)” value with Tg2576 mice is on record as “fully rescued”. In the assay with ERK1/2, the “total ERK1 and ERK2 levels” value is recorded as “No changes”; the “ERK2 activation (phosphorylation of ERK2)” value is reported as “significantly higher”; the “pERK1 (phospho-ERK1) level” value is “equally increased”.
Take “GRKKRRQRRRPPQGGGGGEPRRTEGVGPGVPGEVEMVKGQPFDV (listed as Homo sapiens) [CPP-RB5]”: in assay [1] (20 mg/kg i.p.), the “nuclear ERK-dependent signalling and gene transcription (pMSK, pAcH3, pELK, c-Fos)” value is recorded as “significantly increased”; the “striatal ERK phosphorylation (pERK1/2)” value is recorded as “significantly enhanced”. For the same molecule, the “cytoplasmic signalling measured by ribosomal S6 phosphorylation” value in assay [1] (20 mg/kg) was “at a lesser extent reduced”. In addition, in assay [1] (20 mg/kg, vs CPP-SCR), the “phosphorylation of voltage-gated potassium channel (pKv4.2) and MEK-1” value is listed as “comparable between the two treatments”. In addition, in the assay with Tg2576 mice, the “Contextual Fear (CF) memory impairment (% of time spent freezing)” value is listed as “rescued already present memory impairments in aged Tg2576 mice back to WT levels”. Besides, in the assay with ERK1/2, the “total ERK1 and ERK2 levels” value is listed as “no changes”; the “ERK2 activation (phosphorylation of ERK2)” value is given as “selectively enhanced”; the “pERK1 (phospho-ERK1) level” value is recorded as “equally increased”.
